In patent US9284329B2, “Thienopyridone derivatives useful as activators of AMPK” (POXEL, priority 2012, dated 2016):

tested on: AMPK; assay: AMPK enzymatic activity (Delfia technology, AMARA peptide substrate); assay type: biochemical; conditions: AMP at 200 μM as reference
Protocol: The following biological test allows the determination of the efficacy of compounds of formula (I) onto AMPK protein.
AMPK enzyme activities were assayed by using a Delfia technology. AMPK enzyme activities were carried out in microtiter plates in the presence of a synthetic peptide substrate (AMARAASAAALARRR, the “AMARA” peptide) and activators in serial dilutions. Reactions were initiated by the addition of AMPK. Enzyme activity was assayed by using an anti-phosphoserine antibody to measure the quantity of phosphate incorporated into the AMARAA.
N°: Number of the molecule
Activity: Ratio between the % of control (basal activity) of compound of formula (1) at 30 μM and the % of control (basal activity) of AMP (natural substrate) at 200 μM.

Row | SMILES | Activity: Ratio between the % of control (basal activity) of compound at 30 μM and the % of control (basal activity) of AMP at 200 μM
1 | COc1ccc(-c2c(O)c3c(-c4ccc5c(c4)CCC5)c(Cl)sc3[nH]c2=O)cc1 [Compound 1, 2-chloro-4-hydroxy-3-indan-5-yl-5-(4-methoxyphenyl)-7H-thieno[2,3-b]pyridin-6-one] | C (C>130%)
2 | O=c1[nH]c2sc(Cl)c(-c3ccc4c(c3O)CCC4)c2c(O)c1-c1ccccc1 [Compound 2, 2-chloro-4-hydroxy-3-(4-hydroxyindan-5-yl)-5-phenyl-7H-thieno[2,3-b]pyridin-6-one] | B (110%<B<130%)
3 | O=c1[nH]c2sc(Cl)c(-c3ccc4c(c3)CCC4)c2c(O)c1-c1ccccc1 [Compound 3, 2-chloro-4-hydroxy-3-indan-5-yl-5-phenyl-7H-thieno[2,3-b]pyridin-6-one] | B (110%<B<130%)
4 | O=c1[nH]c2sc(Cl)c(-c3ccc4c(c3)CCC4)c2c(O)c1-c1ccc(F)cc1 [Compound 4, 2-chloro-5-(4-fluorophenyl)-4-hydroxy-3-indan-5-yl-7H-thieno[2,3-b]pyridin-6-one] | B (110%<B<130%)
5 | COc1cccc(-c2c(O)c3c(-c4ccc5c(c4)CCC5)c(Cl)sc3[nH]c2=O)c1 [Compound 5, 2-chloro-4-hydroxy-3-indan-5-yl-5-(3-methoxyphenyl)-7H-thieno[2,3-b]pyridin-6-one] | C (C>130%)
6 | N#Cc1cccc(-c2c(O)c3c(-c4ccc5c(c4)CCC5)c(Cl)sc3[nH]c2=O)c1 [Compound 6, 3-(2-chloro-4-hydroxy-3-indan-5-yl-6-oxo-7H-thieno[2,3-b]pyridin-5-yl)benzonitrile] | C (C>130%)
7 | Cc1cccc(-c2c(O)c3c(-c4ccc5c(c4)CCC5)c(Cl)sc3[nH]c2=O)c1 [Compound 7, 2-chloro-4-hydroxy-3-indan-5-yl-5-(m-tolyl)-7H-thieno[2,3-b]pyridin-6-one] | C (C>130%)
8 | O=c1[nH]c2sc(Cl)c(-c3ccc4c(c3O)CCC4)c2c(O)c1-c1ccc(F)cc1 [Compound 8, 2-chloro-5-(4-fluorophenyl)-4-hydroxy-3-(4-hydroxyindan-5-yl)-7H-thieno[2,3-b]pyridin-6-one] | C (C>130%)
9 | O=c1[nH]c2sc(Cl)c(-c3ccc4c(c3O)CCC4)c2c(O)c1-c1cccc(F)c1 [Compound 9, 2-chloro-5-(3-fluorophenyl)-4-hydroxy-3-(4-hydroxyindan-5-yl)-7H-thieno[2,3-b]pyridin-6-one] | C (C>130%)
10 | O=c1[nH]c2sc(Cl)c(-c3ccc4c(c3)CCC4)c2c(O)c1-c1cccnc1 [Compound 10, 2-chloro-4-hydroxy-3-indan-5-yl-5-(3-pyridyl)-7H-thieno[2,3-b]pyridin-6-one] | A (A<110%)
11 | O=c1[nH]c2sc(Cl)c(-c3ccc4c(c3O)CCC4)c2c(O)c1-c1ccccc1F [Compound 11, 2-chloro-5-(2-fluorophenyl)-4-hydroxy-3-(4-hydroxyindan-5-yl)-7H-thieno[2,3-b]pyridin-6-one] | B (110%<B<130%)
12 | O=c1[nH]c2sc(Cl)c(-c3ccc4c(c3O)CCCC4)c2c(O)c1-c1ccccc1 [Compound 12, 2-chloro-4-hydroxy-3-(5-hydroxytetralin-6-yl)-5-phenyl-7H-thieno[2,3-b]pyridin-6-one] | C (C>130%)
13 | O=c1[nH]c2sc(Cl)c(-c3ccc4c(c3)CCCC4)c2c(O)c1-c1cccnc1 [Compound 13, 2-chloro-4-hydroxy-5-(3-pyridyl)-3-tetralin-6-yl-7H-thieno[2,3-b]pyridin-6-one] | C (C>130%)
14 | N#Cc1cccc(-c2c(O)c3c(-c4ccc5c(c4)CCCC5)c(Cl)sc3[nH]c2=O)c1 [Compound 15, 3-(2-chloro-4-hydroxy-6-oxo-3-tetralin-6-yl-7H-thieno[2,3-b]pyridin-5-yl)benzonitrile] | B (110%<B<130%)
15 | [Na+].[Na+].[Na+].[O-]c1nc2sc(Cl)c(-c3ccc4c(c3[O-])CCCC4)c2c([O-])c1-c1ccccc1 [Compound 16, trisodium 2-chloro-3-(5-oxidotetralin-6-yl)-5-phenyl-thieno[2,3-b]pyridine-4,6-diolate] | B (110%<B<130%)
16 | O=c1[nH]c2sc(Cl)c(-c3ccc4c(c3)CCCC4)c2c(O)c1-c1ccccc1 [Compound 17, 2-chloro-4-hydroxy-5-phenyl-3-tetralin-6-yl-7H-thieno [2,3-b]pyridin-6-one] | A (A<110%)
17 | O=c1[nH]c2sc(Cl)c(-c3ccc4c(c3O)CCCC4)c2c(O)c1-c1ccc(F)cc1 [Compound 18, 2-chloro-5-(4-fluorophenyl)-4-hydroxy-3-(5-hydroxytetralin-6-yl)-7H-thieno[2,3-b]pyridin-6-one] | B (110%<B<130%)
18 | O=c1[nH]c2sc(Cl)c(-c3ccc4c(c3[O-])CCCC4)c2c([O-])c1-c1ccccc1.[Na+].[Na+] [Compound 19, disodium 2-chloro-3-(5-oxidotetralin-6-yl)-6-oxo-5-phenyl-7H-thieno[2,3-b]pyridin-4-olate] | C (C>130%)
19 | Cc1cccc(-c2c(O)c3c(-c4ccc5c(c4O)CCCC5)c(Cl)sc3[nH]c2=O)c1 [Compound 20, 2-chloro-4-hydroxy-3-(5-hydroxytetralin-6-yl)-5-(m-tolyl)-7H-thieno[2,3-b]pyridin-6-one] | C (C>130%)
20 | Cc1ccc(-c2c(O)c3c(-c4ccc5c(c4O)CCCC5)c(Cl)sc3[nH]c2=O)cc1 [Compound 21, 2-chloro-4-hydroxy-3-(5-hydroxytetralin-6-yl)-5-(p-tolyl)-7H-thieno[2,3-b]pyridin-6-one] | C (C>130%)

tested on: Ob/ob mice; assay: In vivo control of glycemia in ob/ob mice; conditions: oral BID during 8 days, 150 mg/kg, compared to an animal group control
Protocol: The following biological test allows the determination of the efficacy of compounds of formula (I) onto the control of glycemia on a pharmaceutical animal model.
All experiments on animals were carried out in accordance with the European animal care guidelines (ETS123).
Ob/ob mice from CERJ (53940 Le Genest Saint Isle, France) were treated orally with compounds of formula (1) BID during 8 days. At that time, a blood sample was collected and glucose concentration was determined using ABX diagnostic kit.
Results are given as a percentage of glycemia variation compared to an animal group control.

Row | SMILES | % glycemia variation
21 | O=c1[nH]c2sc(Cl)c(-c3ccc4c(c3O)CCCC4)c2c(O)c1-c1ccccc1 [Compound 12, 2-chloro-4-hydroxy-3-(5-hydroxytetralin-6-yl)-5-phenyl-7H-thieno[2,3-b]pyridin-6-one] | −27%
22 | O=c1[nH]c2sc(Cl)c(-c3ccc4c(c3[O-])CCCC4)c2c([O-])c1-c1ccccc1.[Na+].[Na+] [Compound 19, disodium 2-chloro-3-(5-oxidotetralin-6-yl)-6-oxo-5-phenyl-7H-thieno[2,3-b]pyridin-4-olate] | −41%

tested on: ob/ob and db/db mice; assay: not given; conditions: 8 day administration; cited from earlier work

Row | SMILES | reduces blood glucose
23 | NC(=O)c1ncn([C@@H]2O[C@H](CO)[C@@H](O)[C@H]2O)c1N [AICAR] | 35%
